Experimental data as given in ChEMBL document CHEMBL1201862, “PubChem BioAssay data set” (2004).
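The compound was tested at five concentrations on cells cultured in 96-well plates, with a 48-hour exposure period. The concentration for 50% growth inhibition is given as GI50.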 Calls of active or inactive are those of the source. No stated cut-off is given here; in the data, active = GI50 up to about 1.1 µM and inactive = higher.

Key:
Test in all cases: NCI tumour cell line growth inhibition, 48 h
MOLT-4 = system: MOLT-4
CAKI-1 = system: CAKI-1
Malme-3M = system: Malme-3M
HCT-15 = system: HCT-15
SN12C = system: SN12C
PC-3 = system: PC-3
OVCAR-5 = system: OVCAR-5
MCF7 = system: MCF7
OVCAR-8 = system: OVCAR-8
SF-295 = system: SF-295
UO-31 = system: UO-31
U-251 = system: U-251
SNB-19 = system: SNB-19
M14 = system: M14
BT-549 = system: BT-549
MDA-MB-231 = system: MDA-MB-231
CCRF-CEM = system: CCRF-CEM
HOP-92 = system: HOP-92
NCI/ADR-RES = system: NCI/ADR-RES
DU-145 = system: DU-145
MDA-N = system: MDA-N
NCI-H226 = system: NCI-H226
UACC-62 = system: UACC-62
SK-MEL-2 = system: SK-MEL-2
KM12 = system: KM12
SR = system: SR
NCI-H522 = system: NCI-H522
SNB-75 = system: SNB-75
NCI-H460 = system: NCI-H460
HT-29 = system: HT-29
OVCAR-3 = system: OVCAR-3
NCI-H23 = system: NCI-H23
SK-MEL-5 = system: SK-MEL-5
A498 = system: A498
T47D = system: T47D
HCC 2998 = system: HCC 2998
COLO 205 = system: COLO 205
HOP-62 = system: HOP-62
SK-MEL-28 = system: SK-MEL-28
IGROV-1 = system: IGROV-1
Hs-578T = system: Hs-578T
MDA-MB-435 = system: MDA-MB-435
RPMI-8226 = system: RPMI-8226
K562 = system: K562
HCT-116 = system: HCT-116
RXF 393 = system: RXF 393
SK-OV-3 = system: SK-OV-3
A549 = system: A549
EKVX = system: EKVX
OVCAR-4 = system: OVCAR-4
SW-620 = system: SW-620
SF-268 = system: SF-268
HL-60 = system: HL-60
786-0 = system: 786-0
UACC-257 = system: UACC-257
SF-539 = system: SF-539
TK-10 = system: TK-10
LOX IMVI = system: LOX IMVI
ACHN = system: ACHN

`c1ccc(/N=C2\SC3=NCCN3\C2=N/c2ccccc2)cc1` was tested, and the GI50 (MOLT-4) was 3.47 µM (inactive), the GI50 (CAKI-1) was 17.9 µM (inactive) and the GI50 (Malme-3M) was > 10 µM (inactive). The GI50 (HCT-15) was 10 µM, the GI50 (SN12C) was 22.8 µM (inactive) and the GI50 (PC-3) was 13.1 µM (inactive). For the same molecule, the GI50 (OVCAR-5) was 20.1 µM (inactive), the GI50 (MCF7) was 10.7 µM (inactive) and the GI50 (OVCAR-8) was 25.9 µM (inactive). The GI50 (SF-295) was 17.5 µM (inactive), the GI50 (UO-31) was 13.5 µM (inactive) and the GI50 (U-251) was 17.7 µM (inactive). The GI50 (SNB-19) was 17.1 µM (inactive), the GI50 (M14) was 17.5 µM (inactive) and the GI50 (BT-549) was 15.2 µM (inactive). For the same molecule, the GI50 (MDA-MB-231) was 22.9 µM (inactive), the GI50 (CCRF-CEM) was 2.68 µM (inactive) and the GI50 (HOP-92) was 27.1 µM (inactive). For the same molecule, the GI50 (NCI/ADR-RES) was 28 µM (inactive), the GI50 (DU-145) was 13.2 µM (inactive) and the GI50 (MDA-N) was 15.7 µM (inactive). For the same molecule, the GI50 (NCI-H226) was 20.6 µM (inactive), the GI50 (UACC-62) was 7.38 µM (inactive) and the GI50 (SK-MEL-2) was 19.9 µM (inactive). The GI50 (KM12) was 15.9 µM (inactive), the GI50 (SR) was 21.4 µM (inactive) and the GI50 (NCI-H522) was 13.6 µM (inactive). The GI50 (SNB-75) was 18 µM (inactive), the GI50 (NCI-H460) was 20.7 µM (inactive) and the GI50 (HT-29) was 16.4 µM (inactive). For the same molecule, the GI50 (OVCAR-3) was 18.1 µM (inactive), the GI50 (NCI-H23) was 20.1 µM (inactive) and the GI50 (SK-MEL-5) was 15.5 µM (inactive). The GI50 (A498) was 19.8 µM (inactive), the GI50 (T47D) was 9.12 µM (inactive) and the GI50 (HCC 2998) was 18.7 µM (inactive). The GI50 (COLO 205) was 15.5 µM (inactive), the GI50 (HOP-62) was 18.7 µM (inactive) and the GI50 (SK-MEL-28) was 17 µM (inactive). For the same molecule, the GI50 (IGROV-1) was > 10 µM (inactive), the GI50 (Hs-578T) was 36.9 µM (inactive) and the GI50 (MDA-MB-435) was 15.6 µM (inactive). The GI50 (RPMI-8226) was 16.3 µM (inactive), the GI50 (K562) was 4.24 µM (inactive) and the GI50 (HCT-116) was 13.6 µM (inactive). For the same molecule, the GI50 (RXF 393) was 15.2 µM (inactive) and the GI50 (SK-OV-3) was 34 µM (inactive).

For `C=CCC1(O)C(=O)OC2C(O)COC21O` (stereo not given), the GI50 (MOLT-4) was > 100 µM (inactive), the GI50 (CAKI-1) was > 100 µM (inactive) and the GI50 (Malme-3M) was > 100 µM (inactive). The GI50 (HCT-15) was over 100 µM, the GI50 (SN12C) was > 100 µM (inactive) and the GI50 (PC-3) was > 100 µM (inactive). The GI50 (OVCAR-5) was > 100 µM (inactive), the GI50 (MCF7) was > 100 µM (inactive) and the GI50 (A549) was > 100 µM (inactive). The GI50 (OVCAR-8) was > 100 µM (inactive), the GI50 (SF-295) was > 100 µM (inactive) and the GI50 (UO-31) was > 100 µM (inactive). The GI50 (EKVX) was > 100 µM (inactive), the GI50 (U-251) was > 100 µM (inactive) and the GI50 (SNB-19) was > 100 µM (inactive). The GI50 (M14) was > 100 µM (inactive), the GI50 (BT-549) was > 100 µM (inactive) and the GI50 (MDA-MB-231) was > 100 µM (inactive). For the same molecule, the GI50 (CCRF-CEM) was > 100 µM (inactive), the GI50 (HOP-92) was > 100 µM (inactive) and the GI50 (OVCAR-4) was > 100 µM (inactive). The GI50 (NCI/ADR-RES) was > 100 µM (inactive), the GI50 (SW-620) was > 100 µM (inactive) and the GI50 (SF-268) was > 100 µM (inactive). For the same molecule, the GI50 (DU-145) was > 100 µM (inactive), the GI50 (MDA-N) was > 100 µM (inactive) and the GI50 (NCI-H226) was > 100 µM (inactive). The GI50 (UACC-62) was > 100 µM (inactive), the GI50 (HL-60) was > 100 µM (inactive) and the GI50 (SK-MEL-2) was > 100 µM (inactive). For the same molecule, the GI50 (KM12) was > 100 µM (inactive), the GI50 (786-0) was > 100 µM (inactive) and the GI50 (SR) was > 100 µM (inactive). For the same molecule, the GI50 (NCI-H522) was > 100 µM (inactive), the GI50 (SNB-75) was 35.4 µM (inactive) and the GI50 (NCI-H460) was > 100 µM (inactive). The GI50 (HT-29) was > 100 µM (inactive), the GI50 (OVCAR-3) was > 100 µM (inactive) and the GI50 (NCI-H23) was > 100 µM (inactive). The GI50 (SK-MEL-5) was > 100 µM (inactive), the GI50 (UACC-257) was > 100 µM (inactive) and the GI50 (A498) was > 100 µM (inactive). The GI50 (T47D) was > 100 µM (inactive), the GI50 (SF-539) was > 100 µM (inactive) and the GI50 (TK-10) was > 100 µM (inactive). For the same molecule, the GI50 (HCC 2998) was > 100 µM (inactive), the GI50 (COLO 205) was > 100 µM (inactive) and the GI50 (HOP-62) was > 100 µM (inactive). For the same molecule, the GI50 (LOX IMVI) was > 100 µM (inactive), the GI50 (SK-MEL-28) was 23 µM (inactive) and the GI50 (IGROV-1) was > 100 µM (inactive). The GI50 (Hs-578T) was > 100 µM (inactive), the GI50 (MDA-MB-435) was > 100 µM (inactive) and the GI50 (K562) was > 100 µM (inactive). The GI50 (ACHN) was > 100 µM (inactive), the GI50 (HCT-116) was > 100 µM (inactive) and the GI50 (RXF 393) was > 100 µM (inactive). For the same molecule, the GI50 (SK-OV-3) was > 100 µM (inactive).
